SMILES strings stand for the structures.

For this experiment, the target named is Induced myeloid leukemia cell differentiation protein Mcl-1 (Homo sapiens) (UniProt Q07820). The experiment in a line: Mcl-1/Noxa binding inhibitor potency, dose response, biochemical, TR-FRET (AID 1417). To be noted: Mcl-1/Noxa peptide interaction, cell-free TR-FRET (terbium/rhodamine), 2 h; measured here: absolute IC50.
Induced myeloid leukemia cell differentiation protein Mcl-1 (Homo sapiens), sequence (Q07820 whole entry, looked up): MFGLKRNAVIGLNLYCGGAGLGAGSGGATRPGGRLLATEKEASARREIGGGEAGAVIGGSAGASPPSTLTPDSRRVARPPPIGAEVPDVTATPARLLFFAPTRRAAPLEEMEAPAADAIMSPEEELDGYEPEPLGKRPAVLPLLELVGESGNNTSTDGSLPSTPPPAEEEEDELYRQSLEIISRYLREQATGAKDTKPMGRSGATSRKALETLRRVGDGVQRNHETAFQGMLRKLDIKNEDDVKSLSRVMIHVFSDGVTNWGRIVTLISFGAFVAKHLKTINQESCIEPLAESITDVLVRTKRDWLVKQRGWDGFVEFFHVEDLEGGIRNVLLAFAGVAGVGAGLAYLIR
Molecule `O=C(Nc1ccc(S(=O)(=O)Nc2nccs2)cc1)c1cc(-c2ccncc2)nc2ccccc12` registered an IC50 of less than 0.4 µM. With `Cc1c(Cl)cnc(NC(=O)COC(=O)c2ccc([N+](=O)[O-])s2)c1Cl` the figure was 7.01 µM; with `CC(=O)c1sc2nc(CSc3nnnn3-c3ccccc3)[nH]c(=O)c2c1C`, 0.93 µM; with `O/N=C1/CCCSc2ccccc21`, more than 54 µM. With `CC(=O)C1=C(S(=O)(=O)c2ccc(C)cc2)CS(=O)(=O)C1` the figure was less than 0.4 µM; with `COCCN(CCOC)S(=O)(=O)c1ccc(C(=O)Nc2c(C)n(C)n(-c3ccccc3)c2=O)cc1`, more than 54 µM. The value for `CCc1c(C)[nH]c2ccc(OC)cc2c1=S` was less than 0.4 µM. Molecule `Cc1ccccc1/C=N/Nc1ccnc2cc(Cl)ccc12` came in with an IC50 of 6.6 µM. The value for `O=C1/C(=C/c2ccccn2)SC(=S)N1c1ccc(O)cc1` was 8.38 µM.

Molecule `Cc1ccc(-c2c3c([nH]c(=S)c2C#N)CCCC3)o1` registered an IC50 of 1.17 µM. Turning to `O=C1NN(c2ccc(Cl)cc2)C(=O)/C1=C\c1ccc(-c2cccc(C(=O)O)c2)o1`, the IC50 turned out to be 0.894 µM. In the case of `Cc1nc(C)c(C(=O)Nc2nc3c(C)cccc3s2)o1`, the IC50 came to 2.63 µM.

`CC(C)OC(=O)Cn1cnc2ccc(Br)cc2c1=O` yielded an IC50 of more than 54 µM.

`O=c1oc2ccccc2cc1-c1csc(Nc2ccc(O)cc2)n1` showed an IC50 of 0.716 µM.

As for `CC1=C(SCCC#N)S/C(=C2\SC(C)=C(SCCC#N)S2)S1`, the concentration for half-maximal inhibition (IC50) was found to be 2.71 µM. The value for `Cc1ccc(/C=C2\C(=O)NC(=S)N(c3ccccc3F)C2=O)s1` was 1.86 µM.

Molecule `Clc1cccc(N/N=C/c2ccc(N3CCOCC3)s2)c1` showed an IC50 of less than 0.4 µM. Molecule `CC(=O)c1ccc(NC(=O)CSc2ccsc2[N+](=O)[O-])cc1` showed a concentration for half-maximal inhibition (IC50) of more than 54 µM.

In turn, `Cc1cc(C)c2oc(C(=O)Nc3ccc(S(=O)(=O)Nc4nccs4)cc3)cc(=O)c2c1` displayed a 50% inhibitory concentration (IC50) of 4.58 µM. With `CN(c1ccccc1)c1ccc(/C=C(\CCC(=O)O)c2nc3ccccc3s2)cc1[N+](=O)[O-]` the figure was 1.06 µM. With `CCOC(=O)c1ccc2c(c1)C1C=CCC1C(C(=O)O)N2` (stereo unspecified) the figure was less than 0.4 µM; with `O=c1cc(-c2ccccc2Cl)oc2c(NS(=O)(=O)c3cc(Cl)cc(Cl)c3O)ccc(O)c12`, 2.41 µM. With `Nc1c(O)ccc2c1C(=O)c1ccccc1C2=O` the figure was 43.4 µM.

Consider `COCCCNC(=O)/C(C#N)=C/c1ccc(OCC(=O)O)c(OC)c1`, for which the IC50 stood at 3.46 µM.

The molecule `O=C(O)CCCN1C(=O)/C(=C\c2ccc(-c3nc4ccccc4s3)o2)SC1=S` yielded an IC50 of 1.12 µM. With `Cc1c(NS(=O)(=O)c2cc(NC(=O)CCN3CCCC(C)C3)ccc2Cl)c(=O)n(-c2ccccc2)n1C` (stereo unspecified) the figure was more than 54 µM. The value for `Cc1ccc(-c2ccc(/C=C3/NC(=O)NC3=O)o2)cc1[N+](=O)[O-]` was 6.44 µM. With `COc1ccc(/C=C2\SC(=O)N(CCC(=O)Nc3ccc(S(=O)(=O)Nc4nccs4)cc3)C2=O)cc1` the figure was less than 0.4 µM; with `COc1ccccc1/C=C1/SC(=O)N(CCC(=O)Nc2ccc(S(=O)(=O)Nc3nccs3)cc2)C1=O`, 2.85 µM; with `Oc1[nH]c(=S)sc1/C=C1\C(c2ccccc2)=Nc2ccccc21`, 8.66 µM.

Molecule `O=C(Nc1ccc2nc3ccccc3nc2c1)c1ccccc1` returned a concentration for half-maximal inhibition (IC50) of 29.6 µM. With `O=C(O)c1cccc(N/N=C/C2=C(Cl)c3cc(Cl)ccc3SC2)c1` the figure was 4.33 µM; with `CC(C)CC1NC(=O)N(CC(=O)N2c3ccccc3NC(=O)C2(C)C)C1=O` (stereo unspecified), more than 54 µM; with `N=C1S/C(=C\c2ccco2)C(=O)N1c1ccc2c(c1)OCO2`, 8.85 µM. The value for `COc1ccc(N2CCC(CNS(=O)(=O)c3cccc(C(F)(F)F)c3)C2)cc1` (stereo unspecified) was less than 0.4 µM; that for `CC1=C(C#N)C(=O)NC(=O)/C1=C/c1ccc(-c2ccc(S(N)(=O)=O)cc2)o1` was less than 0.4 µM. With `Cc1cc(=O)oc2cc(OCc3ccc(C(=O)OCC(=O)Nc4ccc(N(C)C)cc4)cc3)ccc12`, the IC50 was less than 0.4 µM. The value for `Nc1ccc2nc(-c3ccc(Cl)cc3)[nH]c2c1` was 30.5 µM. With `COc1ccc(C(=O)CSc2nnc(-c3ccco3)c(-c3ccco3)n2)cc1` the figure was 7.95 µM; with `O=C(Cc1csc(N2CCOCC2)n1)N/N=C/c1ccc(O)c(O)c1O`, less than 0.4 µM; with `Cc1ccc(CNC(=O)c2ccc(-n3cccc3)cc2)cc1`, 2.26 µM. The value for `COc1cc(/C=N/NC(=O)c2cc(-c3ccco3)nc3ccccc23)cc(OC)c1O` was less than 0.4 µM. Consider `N#CC(C#N)=NNc1ccc(S(N)(=O)=O)cc1`, for which the IC50 was found to be 1.91 µM. With `O=C1NC(=S)S/C1=C\c1ccc(SCc2ccco2)o1` the figure was less than 0.4 µM; with `O=C(NN1C(=O)/C(=C/C=C/c2ccco2)SC1=S)c1ccccc1O`, 1.01 µM. With `Cc1ccc(-n2nc(C)cc2NC(=O)COc2cc(C)cc3oc(=O)c4c(c23)CCC4)cc1` the figure was more than 54 µM; with `COc1ccc(N2Cc3cccc(C(=O)O)c3C2=O)cc1`, 4.79 µM; with `O=S(=O)(Cc1cc(Cl)nc(-c2ccncc2)n1)c1ccccc1`, 24.8 µM. With `COc1ccc(C(=O)c2sc3nc(-c4ccccc4)ccc3c2N)cc1OC` the figure was more than 54 µM. For `O=C1CC(c2ccc(O)c(O)c2)Oc2c1ccc(O)c2O` (stereo unspecified), the IC50 turned out to be 2.46 µM. Take `Cc1cccc(/C=C/C(=O)c2ccc(NC3=NCCCS3)cc2)c1`: the IC50 came out at 4.9 µM. The value for `O=C(CSc1nc2ccccc2s1)Nc1cc(S(=O)(=O)N2CCOCC2)ccc1O` was 0.722 µM.

Turning to `CCC1(C(=O)OC)CCc2c(cc(OC)c3ccccc23)C1=O` (stereo unspecified), the 50% inhibitory concentration (IC50) amounted to 48.1 µM. With `Nc1ccc(C2=Nc3cccc4cccc(c34)N2)cc1` the figure was less than 0.4 µM. The value for `Nc1cccc(C2=Nc3cccc4cccc(c34)N2)c1` was less than 0.4 µM. With `COc1cc(NS(=O)(=O)c2ccc(NC(=S)NC(=O)c3sc4cc(F)ccc4c3Cl)cc2)nc(OC)n1` the figure was more than 54 µM; with `NS(=O)(=O)c1ccc(-c2ccc(/C=C3\SC(=S)N(C4CCS(=O)(=O)C4)C3=O)o2)cc1` (stereo unspecified), 2.55 µM; with `CCCCOC(=O)Nc1ccc(N(C)C)cc1`, 52.5 µM.

Consider `COc1ccc(N2CCC(CNC(=O)Nc3ccc(OC)cc3OC)C2)cc1` (stereo unspecified), for which the half-inhibitory concentration (IC50) is 1.24 µM. With `O=C(CCN1CCN(c2ccccc2)CC1)N/N=C/c1ccc(O)c(O)c1O`, the concentration for half-maximal inhibition (IC50) was less than 0.4 µM. With `CSc1ccc(/C=N/Nc2cccc(C(=O)O)c2)cc1` the figure was 0.893 µM. The value for `O=C1/C(=C\c2ccc(O)cc2)SC(=S)N1/N=C/c1ccc(O)cc1` was 2.99 µM; that for `CNC(=O)NC1CCCc2ccccc21` (stereo unspecified) was more than 54 µM; that for `Cc1ccc(NC(=S)NNc2ccc([N+](=O)[O-])cc2S(=O)(=O)Nc2ccccc2C(=O)O)cc1C` was 1.27 µM. With `C/C(=N\Nc1cccc(C(=O)O)c1)c1ccc2c(c1)Nc1ccccc1S2` the figure was less than 0.4 µM; with `CN(C)c1ccc(C(CNC(=O)c2ccc(C#N)cc2)c2c[nH]c3ccccc23)cc1` (stereo unspecified), more than 54 µM; with `O=C1NC(=S)N/C1=C/c1ccc(-c2c(Br)cc([N+](=O)[O-])cc2Br)o1`, 1.45 µM. Regarding `COc1ccc(C(=O)N=c2c(C#N)cc3c(=O)n4cccc(C)c4nc3n2Cc2ccco2)cc1`, the half-maximal inhibitory concentration (IC50) worked out at 13.8 µM. Consider `COc1ccc(NC(=O)Cc2c(SC)c3ccccc3n2Cc2ccccc2)cc1`, for which the concentration for half-maximal inhibition (IC50) was more than 54 µM. In turn, `CN1CCN(CCCN2c3ccccc3Sc3ccc(Cl)cc32)CC1` showed a concentration for half-maximal inhibition (IC50) of 4.06 µM.

For the molecule `CC(C)c1ccc(Nc2nnc(SCC(=O)c3nnc(-c4ccccc4)o3)s2)cc1`, the half-inhibitory concentration (IC50) was determined as 1.92 µM. With `CC(C)Nc1nnc(SCC(=O)Nc2ccc3c(c2)C(=O)c2ccccc2C3=O)s1` the figure was 2.01 µM; with `O=C(NCCc1ccccc1)c1ccc2nc(-c3ccco3)c(-c3ccco3)nc2c1`, 2 µM; with `COC(=O)c1c(NC(=O)Cc2cccs2)sc2c1CCCC2`, 8.95 µM. The value for `CCN(CC)C(=O)CC(c1cc(OC)c(OC)c(OC)c1)c1c(OC)cc(OC)c2c(-c3ccccc3)cc(=O)oc12` (stereo unspecified) was 4.05 µM; that for `O=C(CSc1nnc(COc2ccccc2Cl)o1)NC(=O)NCc1ccco1` was 8.6 µM. The value for `O=C(Cc1ccc(S(=O)(=O)N2CCOCC2)s1)Nc1nc2c(s1)CCCC2` was 5.18 µM.

`COc1ccc(N=C2S/C(=C\c3ccc(OC(C)C(=O)O)c(OC)c3)C(=O)N2CCc2c[nH]c3ccccc23)cc1` (stereo unspecified) had an IC50 of 7.31 µM. `CCOc1ccccc1NC(=O)/C=C/C(N)=O` returned an IC50 of more than 54 µM.

Molecule `O=c1c2ccccc2nc(-c2ccco2)n1-c1cccnc1` registered a concentration for half-maximal inhibition (IC50) of more than 54 µM. The value for `O=C(O)CCCN1C(=O)/C(=C/C=C/c2ccco2)SC1=S` was more than 54 µM; that for `COc1ccc2nc(S(=O)Cc3ncc(C)c(OC)c3C)[nH]c2c1` (stereo unspecified) was less than 0.4 µM; that for `O=C(O)CSc1cc(C(=O)c2cc(F)ccc2O)cn2c(=O)c3c(-c4ccccc4)csc3nc12` was 2.12 µM. With `CC(C)Oc1ccc(C(=O)Nc2ccc(N(C)C)cc2)cc1` the figure was more than 54 µM; with `O=C(CSc1nnc(-c2ccco2)c(-c2ccco2)n1)c1ccccc1`, 3.7 µM. The value for `Cn1c(=O)c(C(=O)COC(=O)c2cc(-c3ccco3)nc3ccccc23)c(N)n(Cc2ccccc2)c1=O` was less than 0.4 µM; that for `O=C(COC(=O)c1ccc(NS(=O)(=O)c2cccs2)cc1)NCc1ccco1` was 2.41 µM; that for `CCOc1ccc(C(Nc2cccnc2)c2cc(Cl)c3cccnc3c2O)cc1` (stereo unspecified) was 3.25 µM. Molecule `O=C1NC(=Nc2ccccc2)S/C1=C\C=C\c1ccco1` had a 50% inhibitory concentration (IC50) of less than 0.4 µM. On to `Cc1ccc(N=C2NC(=O)/C(=C/C=C/c3ccco3)S2)cc1C`, for which the IC50 came to 4.62 µM.

For the molecule `O=C1NC(=S)N/C1=C/c1cccn1-c1ccc([N+](=O)[O-])cc1`, the IC50 was more than 54 µM. The value for `N=c1oc2cc(O)ccc2cc1C(=O)Nc1nc2ccccc2s1` was 2.93 µM. Regarding `C=CCSC1=N/C(=C\C=C\c2ccco2)C(=O)S1`, the IC50 was found to be 5.07 µM. On to `O=c1cc(-c2ccc(O)c(-c3c(O)cc(O)c4c(=O)cc(-c5ccc(O)cc5)oc34)c2)oc2cc(O)cc(O)c12`, for which the IC50 stood at 1.78 µM. The value for `Nc1c(C(=O)NCCN2CCOCC2)c2nc3ccccc3nc2n1Cc1ccco1` was more than 54 µM. The value for `COc1cc(/C=N\Nc2nc(-c3ccc(C)cc3)c(NC(C)=O)s2)ccc1O` was more than 54 µM.

Values taken from PubChem BioAssay AID1417 (Emory University Molecular Libraries Screening Center, 2008).
